Experimental data reported in ChEMBL document CHEMBL4507276 (2021).

Assays:
[1] = molecular target: Myosin light chain kinase 2, skeletal/cardiac muscle (Homo sapiens) (UniProt Q9H1R3); details: Compound concentration 1000.0 nM
[2] = molecular target: Cyclin-dependent kinase 14 (Homo sapiens) (UniProt O94921); details: Compound concentration 1000.0 nM
[3] = molecular target: Sigma intracellular receptor 2 (Homo sapiens) (UniProt Q5BJF2); details: Compound concentration 10.0 uM
[4] = molecular target: Myosin-IIIa (Homo sapiens) (UniProt Q8NEV4); details: Compound concentration 1000.0 nM
[5] = molecular target: Casein kinase I isoform gamma-2 (Homo sapiens) (UniProt P78368); details: Compound concentration 1000.0 nM
[6] = molecular target: Proto-oncogene tyrosine-protein kinase receptor Ret (Homo sapiens) (UniProt P07949); details: Compound concentration 1000.0 nM
[7] = test system: Mast/stem cell growth factor receptor Kit (Homo sapiens), P10721 [L576P]; details: Compound concentration 1000.0 nM
Mast/stem cell growth factor receptor Kit (Homo sapiens), P10721 [L576P], sequence (P10721 whole entry L576P): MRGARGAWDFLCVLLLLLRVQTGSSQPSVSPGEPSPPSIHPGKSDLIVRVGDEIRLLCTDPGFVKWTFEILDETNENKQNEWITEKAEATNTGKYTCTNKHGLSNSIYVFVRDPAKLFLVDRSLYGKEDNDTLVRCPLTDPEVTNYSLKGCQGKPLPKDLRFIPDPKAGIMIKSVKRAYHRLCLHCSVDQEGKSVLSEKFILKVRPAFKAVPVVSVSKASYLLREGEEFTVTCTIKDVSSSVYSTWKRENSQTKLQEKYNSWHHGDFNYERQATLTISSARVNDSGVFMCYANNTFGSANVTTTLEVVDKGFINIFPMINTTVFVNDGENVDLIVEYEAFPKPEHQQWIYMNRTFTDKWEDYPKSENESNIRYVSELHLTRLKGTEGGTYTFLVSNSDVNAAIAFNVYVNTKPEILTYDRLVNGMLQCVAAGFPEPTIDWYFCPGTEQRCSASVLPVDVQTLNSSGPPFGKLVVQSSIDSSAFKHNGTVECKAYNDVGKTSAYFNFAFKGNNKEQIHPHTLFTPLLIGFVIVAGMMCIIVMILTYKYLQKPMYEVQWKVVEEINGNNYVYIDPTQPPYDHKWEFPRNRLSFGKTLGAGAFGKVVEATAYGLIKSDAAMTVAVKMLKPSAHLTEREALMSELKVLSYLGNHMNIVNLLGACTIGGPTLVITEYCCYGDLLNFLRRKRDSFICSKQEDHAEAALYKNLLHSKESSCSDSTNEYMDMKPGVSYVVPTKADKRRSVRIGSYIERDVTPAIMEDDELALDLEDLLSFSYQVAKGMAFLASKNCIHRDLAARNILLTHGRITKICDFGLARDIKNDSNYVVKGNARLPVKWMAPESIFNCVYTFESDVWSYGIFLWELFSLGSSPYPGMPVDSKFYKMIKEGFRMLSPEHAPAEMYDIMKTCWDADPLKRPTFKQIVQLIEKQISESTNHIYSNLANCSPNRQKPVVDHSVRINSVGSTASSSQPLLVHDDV

[8] = molecular target: Mitogen-activated protein kinase 10 (Homo sapiens) (UniProt P53779); details: Compound concentration 1000.0 nM
Mitogen-activated protein kinase 10 (Homo sapiens), sequence (P53779 whole entry): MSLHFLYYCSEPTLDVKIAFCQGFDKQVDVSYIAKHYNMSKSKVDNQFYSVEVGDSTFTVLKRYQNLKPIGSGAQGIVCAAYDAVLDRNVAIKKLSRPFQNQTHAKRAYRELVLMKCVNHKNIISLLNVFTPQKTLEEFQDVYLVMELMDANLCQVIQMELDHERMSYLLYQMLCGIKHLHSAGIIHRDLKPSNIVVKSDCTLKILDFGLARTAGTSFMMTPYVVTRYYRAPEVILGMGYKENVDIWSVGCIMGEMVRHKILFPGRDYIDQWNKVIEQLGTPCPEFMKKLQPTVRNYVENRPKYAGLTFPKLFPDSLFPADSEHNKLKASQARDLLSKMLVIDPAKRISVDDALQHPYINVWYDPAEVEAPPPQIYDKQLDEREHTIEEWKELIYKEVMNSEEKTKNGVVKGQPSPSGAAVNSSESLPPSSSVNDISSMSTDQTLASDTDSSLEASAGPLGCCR

[9] = molecular target: Wee1-like protein kinase 2 (Homo sapiens) (UniProt P0C1S8); details: Compound concentration 1000.0 nM
[10] = molecular target: Serine/threonine-protein kinase DCLK3 (Homo sapiens) (UniProt Q9C098); details: Compound concentration 1000.0 nM
[11] = molecular target: MAP kinase-interacting serine/threonine-protein kinase 2 (Homo sapiens) (UniProt Q9HBH9); details: Compound concentration 1000.0 nM
[12] = molecular target: Rho-associated protein kinase 1 (Homo sapiens) (UniProt Q13464); details: Compound concentration 1000.0 nM
[13] = molecular target: Mast/stem cell growth factor receptor Kit (Homo sapiens) (UniProt P10721); details: Compound concentration 1000.0 nM
[14] = molecular target: Ephrin type-A receptor 7 (Homo sapiens) (UniProt Q15375); details: Compound concentration 1000.0 nM
[15] = molecular target: T1, Alpha-1B adrenergic receptor (Homo sapiens) (UniProt P35368); details: Compound concentration 10.0 uM
T1 sequence (whole entry): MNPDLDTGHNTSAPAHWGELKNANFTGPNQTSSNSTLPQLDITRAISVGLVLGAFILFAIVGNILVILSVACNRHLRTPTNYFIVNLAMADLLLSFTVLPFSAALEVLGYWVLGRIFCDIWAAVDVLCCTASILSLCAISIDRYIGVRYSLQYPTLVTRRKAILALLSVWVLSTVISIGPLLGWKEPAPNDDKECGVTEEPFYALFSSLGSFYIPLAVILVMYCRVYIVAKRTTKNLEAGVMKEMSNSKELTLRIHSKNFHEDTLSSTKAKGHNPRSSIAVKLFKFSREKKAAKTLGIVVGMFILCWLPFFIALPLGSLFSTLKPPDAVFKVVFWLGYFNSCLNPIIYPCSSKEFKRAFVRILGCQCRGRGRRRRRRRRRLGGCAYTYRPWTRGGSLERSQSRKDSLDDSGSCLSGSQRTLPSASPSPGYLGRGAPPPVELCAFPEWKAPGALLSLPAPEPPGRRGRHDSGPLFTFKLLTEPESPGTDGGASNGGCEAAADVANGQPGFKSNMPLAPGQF

[16] = molecular target: Histamine H2 receptor (Homo sapiens) (UniProt P25021); details: Compound concentration 10.0 uM
[17] = molecular target: Transient receptor potential cation channel subfamily M member 6 (Homo sapiens) (UniProt Q9BX84); details: Compound concentration 1000.0 nM
[18] = molecular target: Mitogen-activated protein kinase 4 (Homo sapiens) (UniProt P31152); details: Compound concentration 1000.0 nM
Mitogen-activated protein kinase 4 (Homo sapiens), sequence (P31152 whole entry): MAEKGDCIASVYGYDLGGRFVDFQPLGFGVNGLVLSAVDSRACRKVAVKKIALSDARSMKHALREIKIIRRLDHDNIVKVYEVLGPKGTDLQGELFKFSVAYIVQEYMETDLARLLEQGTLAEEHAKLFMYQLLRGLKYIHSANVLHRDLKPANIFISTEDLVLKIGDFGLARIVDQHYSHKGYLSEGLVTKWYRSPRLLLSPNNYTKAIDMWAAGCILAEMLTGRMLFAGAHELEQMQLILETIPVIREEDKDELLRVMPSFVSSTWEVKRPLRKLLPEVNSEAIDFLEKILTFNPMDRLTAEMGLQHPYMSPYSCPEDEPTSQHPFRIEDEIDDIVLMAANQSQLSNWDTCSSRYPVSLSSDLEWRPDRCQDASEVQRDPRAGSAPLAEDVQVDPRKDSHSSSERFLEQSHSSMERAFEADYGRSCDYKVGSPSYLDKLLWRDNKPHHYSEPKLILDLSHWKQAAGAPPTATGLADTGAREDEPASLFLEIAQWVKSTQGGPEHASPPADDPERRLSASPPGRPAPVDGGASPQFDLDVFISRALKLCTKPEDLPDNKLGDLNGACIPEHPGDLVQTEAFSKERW

[19] = molecular target: Serine/threonine-protein kinase BRSK2 (Homo sapiens) (UniProt Q8IWQ3); details: Compound concentration 1000.0 nM
Serine/threonine-protein kinase BRSK2 (Homo sapiens), sequence (Q8IWQ3 whole entry): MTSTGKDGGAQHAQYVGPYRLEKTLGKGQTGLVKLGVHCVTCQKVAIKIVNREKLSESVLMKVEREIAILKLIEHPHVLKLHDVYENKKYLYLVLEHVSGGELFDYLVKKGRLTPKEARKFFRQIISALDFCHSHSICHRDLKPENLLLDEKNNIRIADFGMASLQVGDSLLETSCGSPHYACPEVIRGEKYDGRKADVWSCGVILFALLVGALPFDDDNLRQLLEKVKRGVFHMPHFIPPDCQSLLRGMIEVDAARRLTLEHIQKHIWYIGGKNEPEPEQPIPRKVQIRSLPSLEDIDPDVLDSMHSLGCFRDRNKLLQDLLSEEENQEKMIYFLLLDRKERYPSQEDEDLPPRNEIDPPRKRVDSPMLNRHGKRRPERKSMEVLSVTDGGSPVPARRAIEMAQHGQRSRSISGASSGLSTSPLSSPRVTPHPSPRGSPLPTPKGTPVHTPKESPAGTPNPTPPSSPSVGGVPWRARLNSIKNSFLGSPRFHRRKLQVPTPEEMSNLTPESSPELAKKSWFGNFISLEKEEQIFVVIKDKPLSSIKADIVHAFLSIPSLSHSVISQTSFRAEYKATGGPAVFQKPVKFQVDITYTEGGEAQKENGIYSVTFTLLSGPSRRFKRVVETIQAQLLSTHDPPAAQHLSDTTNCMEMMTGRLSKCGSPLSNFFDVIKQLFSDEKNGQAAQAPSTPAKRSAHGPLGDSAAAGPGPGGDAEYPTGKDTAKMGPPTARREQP

[20] = molecular target: T2, D(4) dopamine receptor (Homo sapiens) (UniProt P21917); details: Compound concentration 10.0 uM
T2 sequence (whole entry): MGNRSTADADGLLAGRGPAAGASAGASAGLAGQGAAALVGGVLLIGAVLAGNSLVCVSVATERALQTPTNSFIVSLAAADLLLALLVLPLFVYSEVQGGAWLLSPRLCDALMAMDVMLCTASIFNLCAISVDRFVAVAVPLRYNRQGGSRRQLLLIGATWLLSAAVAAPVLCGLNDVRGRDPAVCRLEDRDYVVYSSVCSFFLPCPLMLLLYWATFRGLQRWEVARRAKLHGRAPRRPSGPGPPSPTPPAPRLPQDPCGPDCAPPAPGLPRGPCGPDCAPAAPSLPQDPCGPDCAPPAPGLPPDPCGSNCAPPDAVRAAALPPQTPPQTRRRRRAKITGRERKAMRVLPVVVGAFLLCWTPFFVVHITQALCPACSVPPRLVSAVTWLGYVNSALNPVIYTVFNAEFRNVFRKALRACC

[21] = molecular target: Serine/threonine-protein kinase WNK2 (Homo sapiens) (UniProt Q9Y3S1); details: Compound concentration 1000.0 nM
[22] = molecular target: 1-phosphatidylinositol 3-phosphate 5-kinase (Homo sapiens) (UniProt Q9Y2I7); details: Compound concentration 1000.0 nM
[23] = molecular target: Phosphatidylinositol 5-phosphate 4-kinase type-2 beta (Homo sapiens) (UniProt P78356); details: Compound concentration 1000.0 nM
Phosphatidylinositol 5-phosphate 4-kinase type-2 beta (Homo sapiens), sequence (P78356 whole entry): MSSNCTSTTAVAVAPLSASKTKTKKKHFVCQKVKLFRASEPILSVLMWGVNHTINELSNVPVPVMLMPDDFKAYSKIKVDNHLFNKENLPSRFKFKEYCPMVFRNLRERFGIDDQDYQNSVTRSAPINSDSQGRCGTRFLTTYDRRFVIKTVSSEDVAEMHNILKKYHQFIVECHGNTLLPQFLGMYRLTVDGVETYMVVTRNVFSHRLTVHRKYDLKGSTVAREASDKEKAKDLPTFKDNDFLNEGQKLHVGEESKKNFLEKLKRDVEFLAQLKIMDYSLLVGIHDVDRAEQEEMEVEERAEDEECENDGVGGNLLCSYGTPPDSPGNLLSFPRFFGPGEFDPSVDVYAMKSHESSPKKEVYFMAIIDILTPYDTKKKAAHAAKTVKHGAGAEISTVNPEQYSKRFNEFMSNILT

[24] = molecular target: T3, Mitogen-activated protein kinase 12 (Homo sapiens) (UniProt P53778); details: Compound concentration 1000.0 nM
T3 sequence (whole entry): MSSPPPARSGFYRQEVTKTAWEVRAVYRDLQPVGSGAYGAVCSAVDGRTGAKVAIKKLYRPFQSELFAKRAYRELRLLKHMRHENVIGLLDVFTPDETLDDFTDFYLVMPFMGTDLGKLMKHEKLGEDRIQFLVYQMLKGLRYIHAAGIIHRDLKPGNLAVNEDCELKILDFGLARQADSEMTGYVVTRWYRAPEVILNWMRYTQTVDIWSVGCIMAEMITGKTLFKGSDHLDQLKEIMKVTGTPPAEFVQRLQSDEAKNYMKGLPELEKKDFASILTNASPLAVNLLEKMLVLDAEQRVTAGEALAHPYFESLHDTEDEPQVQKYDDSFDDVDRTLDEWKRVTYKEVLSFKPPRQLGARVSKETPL

[25] = molecular target: Myosin light chain kinase family member 4 (Homo sapiens) (UniProt Q86YV6); details: Compound concentration 1000.0 nM
[26] = molecular target: Mitogen-activated protein kinase kinase kinase kinase 3 (Homo sapiens) (UniProt Q8IVH8); details: Compound concentration 1000.0 nM
Mitogen-activated protein kinase kinase kinase kinase 3 (Homo sapiens), sequence (Q8IVH8 whole entry): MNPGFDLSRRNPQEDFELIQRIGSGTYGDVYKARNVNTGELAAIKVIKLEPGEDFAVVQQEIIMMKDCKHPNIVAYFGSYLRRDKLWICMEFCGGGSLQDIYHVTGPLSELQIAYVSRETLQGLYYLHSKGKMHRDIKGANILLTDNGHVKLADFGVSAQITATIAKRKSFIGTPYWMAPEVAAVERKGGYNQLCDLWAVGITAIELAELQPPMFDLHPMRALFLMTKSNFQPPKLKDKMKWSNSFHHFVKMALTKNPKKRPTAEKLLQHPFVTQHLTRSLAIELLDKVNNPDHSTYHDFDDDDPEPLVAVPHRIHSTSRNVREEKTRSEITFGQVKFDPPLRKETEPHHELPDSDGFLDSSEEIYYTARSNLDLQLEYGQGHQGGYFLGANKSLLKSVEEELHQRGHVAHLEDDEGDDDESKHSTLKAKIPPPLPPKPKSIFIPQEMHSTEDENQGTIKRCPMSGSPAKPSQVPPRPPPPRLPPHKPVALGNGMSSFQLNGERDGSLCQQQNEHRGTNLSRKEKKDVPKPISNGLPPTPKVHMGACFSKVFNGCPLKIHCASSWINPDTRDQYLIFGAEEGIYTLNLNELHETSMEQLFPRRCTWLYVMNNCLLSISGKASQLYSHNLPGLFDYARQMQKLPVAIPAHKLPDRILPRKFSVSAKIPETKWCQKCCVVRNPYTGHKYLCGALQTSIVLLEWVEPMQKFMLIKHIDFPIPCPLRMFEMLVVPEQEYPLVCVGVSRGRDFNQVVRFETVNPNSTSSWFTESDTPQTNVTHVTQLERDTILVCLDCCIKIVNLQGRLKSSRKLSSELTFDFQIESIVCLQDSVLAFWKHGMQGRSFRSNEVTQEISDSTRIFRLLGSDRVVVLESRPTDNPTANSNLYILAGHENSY

[27] = molecular target: Dual specificity tyrosine-phosphorylation-regulated kinase 1A (Homo sapiens) (UniProt Q13627); details: Compound concentration 1000.0 nM
[28] = molecular target: Cyclin-dependent kinase 11B (Homo sapiens) (UniProt P21127); details: Compound concentration 1000.0 nM
Cyclin-dependent kinase 11B (Homo sapiens), sequence (P21127 whole entry): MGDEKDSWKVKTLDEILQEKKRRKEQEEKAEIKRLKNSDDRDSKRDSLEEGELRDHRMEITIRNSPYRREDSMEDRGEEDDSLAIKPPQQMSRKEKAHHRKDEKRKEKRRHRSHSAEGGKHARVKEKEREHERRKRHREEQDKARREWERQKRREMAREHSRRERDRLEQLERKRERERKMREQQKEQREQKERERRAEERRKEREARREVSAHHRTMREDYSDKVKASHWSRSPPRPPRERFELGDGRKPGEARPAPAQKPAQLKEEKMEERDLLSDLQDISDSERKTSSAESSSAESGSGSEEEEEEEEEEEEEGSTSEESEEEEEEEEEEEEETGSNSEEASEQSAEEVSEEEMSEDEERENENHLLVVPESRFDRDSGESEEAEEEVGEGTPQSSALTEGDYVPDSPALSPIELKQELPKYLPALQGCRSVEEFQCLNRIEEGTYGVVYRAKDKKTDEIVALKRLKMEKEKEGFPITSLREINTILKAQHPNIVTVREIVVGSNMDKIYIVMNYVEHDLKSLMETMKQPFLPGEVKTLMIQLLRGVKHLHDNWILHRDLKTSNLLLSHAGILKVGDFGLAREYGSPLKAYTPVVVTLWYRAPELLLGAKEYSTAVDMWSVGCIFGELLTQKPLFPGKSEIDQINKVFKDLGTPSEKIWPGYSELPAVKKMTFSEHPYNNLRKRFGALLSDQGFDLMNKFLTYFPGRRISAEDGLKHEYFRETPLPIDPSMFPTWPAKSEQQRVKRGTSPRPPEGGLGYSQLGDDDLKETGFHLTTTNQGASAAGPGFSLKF

Sigma intracellular receptor 2 (Homo sapiens), sequence (Q5BJF2 whole entry): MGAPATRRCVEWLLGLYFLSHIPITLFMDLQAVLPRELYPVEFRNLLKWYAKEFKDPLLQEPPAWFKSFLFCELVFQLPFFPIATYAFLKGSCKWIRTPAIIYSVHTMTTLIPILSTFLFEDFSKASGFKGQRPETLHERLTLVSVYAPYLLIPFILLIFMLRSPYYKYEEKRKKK

CN(C)C(=O)Cn1cc(-c2nc(C3(c4ccc(-c5cnc(N)nc5)cc4)CC3)no2)cn1 [BI 0153]
inactive: residual activity [1] 90% | residual activity [2] 100% | inhibition [3] 25% | residual activity [4] 100% | residual activity [5] 82% | residual activity [6] 94% | residual activity [7] 84% | residual activity [8] 93% | residual activity [9] 99% | residual activity [10] 100% | residual activity [11] 94% | residual activity [12] 83% | residual activity [13] 93% | residual activity [14] 92% | inhibition [15] 5.11% | inhibition [16] -9.18% | residual activity [17] 86% | residual activity [18] 100% | residual activity [19] 77% | inhibition [20] 1.18% | residual activity [21] 67% | residual activity [22] 98% | residual activity [23] 71% | residual activity [24] 62% | residual activity [25] 100% | residual activity [26] 89% | residual activity [27] 66% | residual activity [28] 96%

CN(C)C(=O)Cn1cc(-c2nc([C@@](C)(c3ccc(-c4cnc(N)nc4)cc3)C3CC3)no2)cn1 [BI 665915]
inactive: residual activity [1] 100% | residual activity [2] 99% | inhibition [3] 10.1% | residual activity [4] 100% | residual activity [5] 100% | residual activity [6] 94% | residual activity [7] 63% | residual activity [8] 94% | residual activity [9] 100% | residual activity [10] 96% | residual activity [11] 88% | residual activity [12] 97% | residual activity [13] 87% | residual activity [14] 98% | inhibition [15] 2.84% | inhibition [16] -8.4% | residual activity [17] 78% | residual activity [18] 88% | residual activity [19] 100% | inhibition [20] 1.48% | residual activity [21] 100% | residual activity [22] 68% | residual activity [23] 100% | residual activity [24] 94% | residual activity [25] 100% | residual activity [26] 100% | residual activity [27] 73% | residual activity [28] 79%
